Data on two compounds can be found in patent US11236357B2, “Methods of obtaining androecious cucurbit plants” (INSTITUT NATIONAL DE LA RECHERCHE AGRONOMIQUE (INRA), priority 2012, dated 2022).

The target in experiment [1] is Cucumis melo ACS8 variant Cmacs8_L45F (L45→F), SEQ ID No 15 (Cucumis melo, UniProt A0A0S2C3P7, L45F). The class given is biochemical. The following applies: PLP 5 μm; pH 8.5, 25° C. On the procedure:
(§1) Dosing the Transforming Activity of Methionine S-adenosyl into Aminocyclopropane Carboxylate by the 1-aminocyclopropane-1-carboxylate Synthase 8 (ACS8)
(§2) The enzymatic activity of the ACS8 is measured in vitro by following, by 265-nm spectrophotometry, the formation of 5′-methylthioadenosine (MTA) after involving methionine S-adenosyl, deaminase and different PLP concentrations (pyridoxal 5′-phosphate).
The bacterial strain Escherichia coli BL21(DE3)pLYSS is used for the expression of the enzyme. The cloning vector used is the plasmid pET15b (NOVAGEN) which carries the promoter T7 and comprises resistance to ampicillin. S-adenosyl Methionine (SAM), Pyridoxal 5′phosphate (PLP) and 5′Adenylic Acid Deaminase of Aspergillus (deaminase) are available from the SIGMA company. […]
Due to the presence of a Histidine tag associated with each of the ACS8, the latter are purified by using a nickel column (Ni-IDA 15 ml) previously balanced with TRIS at PH8 and NaCl (500 mM). After passing the solution containing recombinant ACS8 to be purified, the column is then washed with TRIS at PH8 (50 mM) and NaCl (500 mM) added with imidazole (10 mM) until no protein can be detected at the output any longer. […]

Experiment [2] deals with Cucumis melo ACS8 (1-aminocyclopropane-1-carboxylate synthase 8), CmACS8, wild, SEQ ID No 12 (Cucumis melo, UniProt A0A0S2C3P7). Description: Transforming activity of methionine S-adenosyl into aminocyclopropane carboxylate (MTA formation at 265 nm). The experiment is classed as biochemical. The following applies: pH 8.5, 25° C. The protocol:
as §1, §2
(§3) The bacterial strain Escherichia coli BL21(DE3)pLYSS is used for the expression of the enzyme. The cloning vector used is the plasmid pET15b (NOVAGEN) which carries the promoter T7 and comprises resistance to ampicillin. S-adenosyl Methionine (SAM), Pyridoxal 5′phosphate (PLP) and 5′Adenylic Acid Deaminase of Aspergillus (deaminase) are available from the SIGMA company.
(§4) These bacteria Escherichia coli BL21(DE3)pLYSS transformed with the construct carrying the 1-aminocyclopropane-1-carboxylate synthase 8 (ACS8) are incubated in 25 ml LURIA-BERTANI medium (tryptone 10 g/L, yeast extract 5 g/L, NaCl 10 g/L) added with ampicillin and chloramphenicol (50 μg/ml each) overnight at 37° C. This pre-culture is used to inoculate 2 litres of the same medium added with ampicillin (50 μg/ml) and the cells are cultivated at 37° C. in a stirred incubator (180 rpm) up to 0.6 Optical Density (DO=600 nm). IPTG is added (0.5 mM) so as to induce the protein expression during a new 5-hour culture phase at 25° C. Cells are centrifuged and kept overnight at −45° C. Cells are then re-suspended in 15 ml TrisNaCl (50 mM, pH7.9, 500 mM, respectively) then subjected to ice sonication in the presence of a protease inhibitor (phenylmethanesulfonyl fluoride), leupeptin, pepstatin and aprotinin, 10 μg/ml each). The cellular debris are removed during a new centrifugation step at 13,000 g during 15 minutes and the supernatant is immediately used for enzymatic purification.
(§5) Due to the presence of a Histidine tag associated with each of the ACS8, the latter are purified by using a nickel column (Ni-IDA 15 ml) previously balanced with TRIS at PH8 and NaCl (500 mM). After passing the solution containing recombinant ACS8 to be purified, the column is then washed with TRIS at PH8 (50 mM) and NaCl (500 mM) added with imidazole (10 mM) until no protein can be detected at the output any longer. The ACS8 are then eluted with the same buffer solution added with imidazole at 100 mM, then dialysed (KPhos 50 mM á PH8.5) before concentration (MILLIPORE AMICON ULTRA DEVICE, 5000 MWC0). The concentrated fraction (20 mg/ml) of ACS8 is aliquoted and stored with glycerol at −45° C. The purification of protein is followed by capillary electrophoresis (EXPERION DEVICE—BIO RAD) with a PRO260 chip.

Experiment [3] addresses Cucumis melo ACS8 variant Cmacs8_G72E (G72E), SEQ ID not listed (Cucumis melo, UniProt A0A0S2C3P7, G72E). Described as above. The experiment is classed as biochemical. The note with it: pH 8.5, 25° C. On the procedure:
as §1, §2, §3, §4, §5

The target in experiment [4] is Cucumis melo ACS8 variant Cmacs8_S295F (S295→F), SEQ ID No 18 (Cucumis melo, UniProt A0A0S2C3P7, S295F). Described as above. The experiment is classed as biochemical. The following applies: pH 8.5, 25° C. The protocol:
as §1, §2, §3, §4, §5

Experiment [5] concerns the target T1, Cucumis sativus ACS8 (1-aminocyclopropane-1-carboxylate synthase 8), CsACS8, wild, SEQ ID No 3 (Cucumis sativus, UniProt A0A0A0LKW1).
T1 construct: N-terminus MASLSSKASHDSHGQNSS
T1 sequence (A0A0A0LKW1 1-440): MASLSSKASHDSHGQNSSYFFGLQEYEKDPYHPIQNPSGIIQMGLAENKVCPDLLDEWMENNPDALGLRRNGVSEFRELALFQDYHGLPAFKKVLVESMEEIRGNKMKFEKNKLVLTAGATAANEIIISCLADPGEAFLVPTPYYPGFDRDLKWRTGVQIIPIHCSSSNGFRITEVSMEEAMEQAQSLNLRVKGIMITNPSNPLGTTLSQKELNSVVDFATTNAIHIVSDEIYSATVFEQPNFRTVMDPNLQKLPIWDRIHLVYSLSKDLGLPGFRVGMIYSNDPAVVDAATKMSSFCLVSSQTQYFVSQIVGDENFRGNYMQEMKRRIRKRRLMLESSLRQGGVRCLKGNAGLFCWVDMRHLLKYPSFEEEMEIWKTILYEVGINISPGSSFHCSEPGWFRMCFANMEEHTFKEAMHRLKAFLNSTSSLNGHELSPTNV
The description is as above. The following applies: pH 8.5, 25° C. The class given is biochemical. On the procedure:
as §1, §2, §3, §4, §5

For the next experiment, the system named is monoecious melon plants. The note with it: monoecious plants treated by ethrel; prior art; cited from earlier work.
Experiment [6] has as its system androecious plants (cucurbitaceae). Kind of experiment: Induction of female flowers in androecious plants by ethrel. The experiment is classed as in vivo. The following applies: androecious plants treated with ethrel. The text has this:
The inventors wished to study the transmission of the androecious phenotype from one generation to the other. However, due to the nature of the plants, it is obviously impossible to fecundate an androecious plant with itself or another androecious plant.
The inventors have then treated the plants with ethrel, a growth regulator known for inducing female flowers in cucurbitaceae. […] The seeds derived from this fruit have been planted to produce plants which phenotype is androecious: the androecious phenotype of the present invention is thus heritable.

Sequence of Cucumis melo ACS8 (1-aminocyclopropane-1-carboxylate synthase 8), CmACS8, wild, SEQ ID No 12 (A0A0S2C3P7 1-440): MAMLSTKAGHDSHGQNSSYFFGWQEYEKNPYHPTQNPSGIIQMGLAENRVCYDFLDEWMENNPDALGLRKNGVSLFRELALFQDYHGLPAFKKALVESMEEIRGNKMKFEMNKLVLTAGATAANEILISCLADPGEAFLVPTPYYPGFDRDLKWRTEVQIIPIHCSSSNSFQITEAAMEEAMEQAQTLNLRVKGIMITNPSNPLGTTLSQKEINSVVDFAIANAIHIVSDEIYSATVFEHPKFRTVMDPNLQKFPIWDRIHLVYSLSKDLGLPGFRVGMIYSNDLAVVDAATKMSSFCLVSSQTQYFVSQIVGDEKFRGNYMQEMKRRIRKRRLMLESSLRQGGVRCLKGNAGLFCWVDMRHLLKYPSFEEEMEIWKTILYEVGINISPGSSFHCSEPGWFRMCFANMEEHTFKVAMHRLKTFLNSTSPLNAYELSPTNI
Sequence of Cucumis melo ACS8 variant Cmacs8_G72E (G72E), SEQ ID not listed (A0A0S2C3P7 entry or part of it G72E): as the sequence (A0A0S2C3P7 1-440) above, with G72E counted along it
Sequence of Cucumis melo ACS8 variant Cmacs8_S295F (S295→F), SEQ ID No 18 (A0A0S2C3P7 entry or part of it S295F): as the sequence (A0A0S2C3P7 1-440) above, with S295F counted along it
Sequence of Cucumis melo ACS8 variant Cmacs8_L45F (L45→F), SEQ ID No 15 (A0A0S2C3P7 entry or part of it L45F): as the sequence (A0A0S2C3P7 1-440) above, with L45F counted along it

Turning to `C[S+](CC[C@H](N)C(=O)[O-])C[C@H]1O[C@@H](n2cnc3c(N)ncnc32)[C@H](O)[C@@H]1O` (some centres unmarked) [S-adenosyl Methionine], the Km (in general, the substrate concentration at which the rate is half of its maximum) turned out to be 23 ± 4 µM in experiment [1]; 20 ± 5 µM in experiment [2] (PLP 5 μm); 20 ± 5 µM in experiment [2] (PLP 100 μm); 17 ± 5 µM in experiment [3] (PLP 5 μm); 15 ± 5 µM in experiment [3] (PLP 100 μm); 16 ± 5 µM in experiment [4] (PLP 5 μm). Besides, the Km in experiment [4] (PLP 100 μm) turned out to be 15 ± 5 µM; in experiment [5] (PLP 5 μm), 20 ± 6 µM; in experiment [5] (PLP 100 μm) it was 25 ± 6 µM.
Regarding `O=P(O)(O)CCCl` [ethrel], the “effect on male flowers” value in the experiment on monoecious melon plants is reported as “temporary disappearance of male flowers”. Also, the “production of female flowers after treatment” value in experiment [6] is given as “briefly produced female flowers”.
